According to patent US20090221019A1, “Core-Modified Terpene Trilactones From Ginkgo Biloba Extract and Biological Evaluation Thereof” (priority 2005, published 2009):

How the values were obtained:
[1] = system: Aβ1-42 induced inhibition of long-term potentiation in the CA1 region of hippocampal slices; assay: Aβ-induced LTP impairment in CA1 region of hippocampal slices (fEPSP recordings, theta-burst stimulation); assay type: cell-based, rat; mice; conditions: for reversal of Aβ-induced LTP impairment: individual terpene trilactones at 1 μM each, co-treated with 200 nM Aβ1-42 oligomers, 20 min; for efficiency of rescue of LTP impairment compared with GJ: 1 μM, 20 min treatment, slices treated with Aβ
[2] = system: SY5Y human neuroblastoma cell line; conditions: Bate et al. (25); cited from earlier work
[3] = system: cultured hippocampal neurons treated with oligomeric Aβ1-42; assay: Neuronal cell death assay (nuclear counting of viable cells); conditions: for cells surviving: mean±SEM
glycine receptor = conditions: among several receptor-gated channels; cited from earlier work
[4] = system: GABAA receptor convulsant binding site; conditions: cited from earlier work
GABAA receptor = conditions: compared with all the ginkgolides; cited from earlier work
[5] = system: inhibition of LTP by Aβ1-42 oligomers; conditions: earlier studies (19); cited from earlier work
[6] = 1 μM compound added at the same time as 10 μM oligomeric Aβ1-42, 24 hour, Aβ alone 48.5%±2.4

CC(C)(C)[C@]1(O)CC2OC(=O)CC23C(=O)OC2OC(=O)[C@H](O)C231 (stereo partly drawn) [BB, bilobalide]
reversal of Aβ-induced LTP impairment [1]: No effect

C[C@@H]1C(=O)O[C@H]2C[C@@]34[C@H]5C[C@@H](C(C)(C)C)[C@]36[C@@H](OC(=O)[C@@H]6O)O[C@@]4(C(=O)O5)[C@]21O [GA, ginkgolide A]
blockade of cell death [2]: blockade of cell death | cells surviving [3, 6]: 50.5%±+5.7 | antagonistic properties toward glycine receptor (glycine receptor): showed antagonistic properties exclusively toward glycine receptor | efficiency of rescue of LTP impairment compared with GJ [1]: slightly less than that of GJ | reversal of Aβ-induced LTP impairment [1]: capable of reproducing the activity of the enriched extract and reversing Aβ-induced LTP impairment

C[C@@H]1COC2CC34C5C[C@@H](C(C)(C)C)C36C(OC[C@@H]6O)O[C@@]4(CO5)[C@]21O (stereo partly drawn) [GA-triether]
efficiency of rescue of LTP impairment compared with GJ [1]: slightly less than that of GJ | reversal of Aβ-induced LTP impairment [1]: capable of reproducing the activity of the enriched extract and reversing Aβ-induced LTP impairment

CC1C(=O)OC2C(O)C34C5CC(C(C)(C)C)C36C(OC(=O)C6O)OC4(C(=O)O5)C12O (stereo not drawn) [GB, ginkgolide B]
blockade of cell death [2]: blockade of cell death | antagonistic properties toward glycine receptor (glycine receptor): showed antagonistic properties exclusively toward glycine receptor | reversal of Aβ-induced LTP impairment [1]: No effect

C[C@@H]1C(=O)O[C@@H]2[C@H]1[C@@]13OC4OC(=O)[C@H](O)C45[C@H](C(C)(C)C)[C@@H](O)C(OC1=O)[C@]53[C@H]2O (stereo partly drawn) [GM, Ginkgolide M]
displacement of TBPS (35S-tert-butylbicyclophosphorothionate) [4]: efficiently displaced | inhibition of the GABAA receptor (GABAA receptor): highest inhibition

COc1ccc(C2CNC(=O)C2)cc1OC1CCCC1 (stereo not drawn) [rolipram]
reversal of inhibition of LTP by Aβ1-42 oligomers [5]: can be reversed by treatment with the phosphodiesterase 4 (PDE4) inhibitor rolipram

ginkgolide C [GC]
antagonistic properties toward glycine receptor (glycine receptor): showed antagonistic properties exclusively toward glycine receptor | reversal of Aβ-induced LTP impairment [1]: No effect

ginkgolide J [GJ]
cells surviving [3, 6]: 70.7%±1.4 | prevention of Aβ-toxicity ([3]; 5 μM, data not shown): completely prevented the Aβ-toxicity | antagonistic properties toward glycine receptor (glycine receptor): showed antagonistic properties exclusively toward glycine receptor | potentiation at the end of the recording (residual potentiation, FIG. 12) ([1]; 155 min): most potent ginkgolide, completely mimicking the activity of the enriched extract | reversal of Aβ-induced LTP impairment [1]: capable of reproducing the activity of the enriched extract and reversing Aβ-induced LTP impairment

oligomeric Aβ1-42: Aβ1-42 purchased from American Peptide, prepared in oligomeric form; neurotoxic agent [reference compound]
cells surviving ([3]; 10 μM oligomeric Aβ1-42 alone, 24 hour exposure): 48.5%±2.4 | LTP in the CA1 area relative to control ([1]; 200 nM Aβ1-42 oligomers alone, within 20 min of exposure): depressed LTP in the CA1 area to about a half of control values | effect on baseline transmission ([1]; substance alone): Neither Aβ nor P8A alone affected baseline transmission
